US8354398B2, “Substituted isoxazole compounds” (Bristol-Myers Squibb Company, priority 2009, dated 2013)
Values belong to the compound of their own block, whether it stands above or below them.

Tests used:
[1] = clinical studies, first 24 hours of treatment; cited from earlier work
circulating lymphocytes [2] = settings: animals and humans; cited from earlier work
S1P1 [3] = biological target: T1, S1P1 (Homo sapiens, UniProt P21453); assay: Method A: Receptor [35S] GTPγS Binding Assay, membranes from S1P1/CHO cells; format: biochemical; set-up: expressed in transfected cells; host or cells: S1P1/CHO cells
T1 sequence (P21453 whole entry): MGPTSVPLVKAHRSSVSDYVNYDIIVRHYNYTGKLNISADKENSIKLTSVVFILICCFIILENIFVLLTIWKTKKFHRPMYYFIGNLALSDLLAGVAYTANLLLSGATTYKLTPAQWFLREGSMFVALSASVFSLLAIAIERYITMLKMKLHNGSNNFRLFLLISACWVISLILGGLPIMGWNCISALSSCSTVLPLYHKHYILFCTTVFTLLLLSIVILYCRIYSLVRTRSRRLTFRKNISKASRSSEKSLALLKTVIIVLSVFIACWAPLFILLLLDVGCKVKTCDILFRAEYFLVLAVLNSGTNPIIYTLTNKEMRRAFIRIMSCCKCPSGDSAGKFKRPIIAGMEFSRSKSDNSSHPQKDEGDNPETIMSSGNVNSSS
Procedure: (§1) Compounds were loaded in a 384 Falcon v-bottom plate (0.5 μl/well in a 3-fold dilution). Membranes prepared from S1P1/CHO cells or EDG3-Ga15-bla HEK293T cells were added to the compound plate (40 μl/well, final protein […]) with MULTIDROP®. [^35S]GTP (1250 Ci/mmol, Perkin Elmer) was diluted in assay buffer: 20 mM HEPES, pH7.5, 10 mM MgCl2, 150 mM NaCl, 1 mM EGTA, 1 mM DTT, 10 μM GDP, 0.1% fatty acid free BSA, and 10 mg/ml Saponin to 0.4 nM. 40 μl of the [^35S] GTP solution was added to the compound plate with a final concentration of 0.2 nM. The reaction was kept at room temperature for 45 min. At the end of incubation, all the mixtures in the compound plate were transferred to a 384 well FB filter plates via GPCR robot system. The filter plate was washed with water 4 times by using the modified manifold Embla plate washer and dried at 60° C. for 45 min. 30 μl of MicroScint 20 scintillation fluid was added to each well for counting at Packard TOPCOUNT®. EC50 is defined as the agonist concentration that corresponds to 50% of the Ymax (maximal response) obtained for each individual compound tested.
(§2) Compounds of the present invention and Comparative Compound A were tested in the Receptor [^35S] GTPγS Binding Assays (Method A) and Receptor [35S] In some instances, the value is an average of multiple experiments where N is the number of experiments conducted that provided satisfactory dose response curves. When more than one batch of an example was tested, the value presented is from a batch which allowed a comparison of GTPγS S1P1 and GTPγS S1P3 in which the most number of experiments were performed. Preferably, the same batch was examined in Method A and Method B. Data was not averaged across different batches of an example compound.

circulating lymphocytes [4] = assay: Blood Lymphocyte Reduction Assay (BLR) in rats; format: in vivo; settings: Lewis rats, oral, vs vehicle group
Procedure: (§3) Lewis rats or BALB/c mice were dosed orally with test article (as a solution or suspension in the vehicle) or vehicle alone (polyethylene glycol 300, “PEG300”). Blood was drawn at 4 hr and 24 h by retro-orbital bleeding. Blood lymphocyte counts were determined on an ADVIA® 120 Hematology Analyzer (Siemens Healthcare Diagnostics). The results were measured as a reduction in the percentage of circulating lymphocytes as compared to the vehicle treated group at the 4 hr and 24 hr measurement. The results represent the average results of all animals within each treatment group (n=3-4).
(§4) Examples 1 and 2 were tested in the Blood Lymphocyte Reduction assay (BLR) described hereinabove and the results are shown in Table D for rats and Table E for mice.

circulating lymphocytes [5] = assay: Blood Lymphocyte Reduction Assay (BLR) in mice; format: in vivo; settings: BALB/c mice, oral, vs vehicle group
Procedure: as §3, §4

S1P1 [6] = biological target: T1, S1P1; assay: Method B: Receptor [35S] GTPγS SPA Binding Assay, membranes from S1P1 transfected CHO cells; format: biochemical; set-up: expressed in transfected cells; host or cells: S1P1/CHO cells
Procedure: (§5) Membranes prepared from S1P1 or S1P3 transfected CHO cells (2 μg protein) were incubated in 96-well white plates (CORNING® 3693) with test compounds diluted in DMSO, in 50 μl of reaction mixture containing 7.5 μl WGA-PVT beads (20 mg/ml), and 5 μM GDP, 20 mM HEPES pH 7.4, 100 mM NaCl, 1 mM EDTA, 5 mM MgCl2, 10 μg/ml saponin, 0.1% BSA, and 1 μM leupeptin. The assay was initiated with the addition of 25 μl of 0.2 nM [^35S]-GTPγS (1250 Ci/mmol; NEN) in assay buffer. After 90 min incubation at room temperature, spin the plate at 1000 rpm for 5 min. The bound radionuclides were measured at TOPCOUNT®, expressed as % response relative to S1P (1 μM) activation. Data was analyzed using the four parameter logistic equation in Excel. The four parameters in the equation, Y=A+((B−A)/(1+((EC50/X)^D))), are described as following: A is the Y value (agonist activity) at the bottom plateau; B is the Y value at the top plateau; EC50 is the X value (agonist concentration) when the response is halfway between bottom and top; D is Hill coefficient. Curves were not generated for compounds having Ymax values were below 50%.
as §2

S1P3 [7] = biological target: T2, S1P3 (Homo sapiens, UniProt Q99500); assay: Method A: Receptor [35S] GTPγS Binding Assay, membranes from EDG3-Ga15-bla HEK293T cells; format: biochemical; set-up: expressed in transfected cells; host or cells: EDG3-Ga15-bla HEK293T cells; settings: EDG3-Ga15-bla HEK293T cell membranes
Procedure: as §1, §2
Target sequence in this assay (Q99500 whole entry): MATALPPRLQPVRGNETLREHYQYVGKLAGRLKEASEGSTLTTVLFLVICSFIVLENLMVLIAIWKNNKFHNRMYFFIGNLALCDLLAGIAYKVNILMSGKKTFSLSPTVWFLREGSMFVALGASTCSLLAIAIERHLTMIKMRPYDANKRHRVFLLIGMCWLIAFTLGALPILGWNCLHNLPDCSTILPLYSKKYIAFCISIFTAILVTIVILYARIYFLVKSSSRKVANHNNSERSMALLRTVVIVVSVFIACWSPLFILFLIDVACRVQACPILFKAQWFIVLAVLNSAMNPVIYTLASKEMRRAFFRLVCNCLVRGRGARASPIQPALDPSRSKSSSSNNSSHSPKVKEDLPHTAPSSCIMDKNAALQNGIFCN

S1P1 [8] = biological target: T1, S1P1; assay: S1P1 Binding Assay (33P-S1P ligand competition, membranes from CHO cells); set-up: expressed in transfected cells; host or cells: CHO cells; settings: membranes of CHO cells expressing human S1P1; 0.03 nM 33P-S1P; 60 min room temperature
Procedure: Membranes were prepared from CHO cells expressing human S1P1. Cells were dissociated in buffer containing 20 mM HEPES, pH 7.5, 50 mM NaCl, 2 mM EDTA and Protease Inhibitor cocktail (Roche), and disrupted on ice using the Polytron homogenizer. The homogenate was centrifuged at 20,000 rpm (48,000 g) and the supernatant was discarded. The membrane pellets were resuspended in buffer containing 50 mM HEPES, pH 7.5, 100 mM NaCl, 1 mM MgCl2, 2 mM EDTA and stored in aliquots at −80° C. after protein concentration determination.
Membranes (2 μg/well) and 0.03 nM final concentration of ^33P-S1P ligand (1 mCi/ml, American Radiolabeled Chemicals) were added to the compound plates. Binding was performed for 60 min at room temperature, terminated by collecting the membranes onto GF/B filter plates, and radioactivity was measured by TOPCOUNT®. The competition data of the test compounds over a range of concentrations was plotted as percentage inhibition of radioligand specific binding. The IC50 is defined as the concentration of competing ligand needed to reduce specific binding by 50%.
Compounds of the present invention and Comparative Compound A were tested in the S1P1 binding assay described hereinabove and the results rounded to two digits, shown in Table A were obtained. In some instances, the value is an average of multiple experiments where N is the number of experiments conducted that provided satisfactory dose response curves. When more than one batch of an example was tested, the value presented is from the batch which allowed a comparison of GTPγS S1P1 and GTPγS S1P3 in Method A (Data shown in Table B). Data was not averaged across different batches of an example compound.

S1P3 [9] = biological target: T2, S1P3; assay: Method B: Receptor [35S] GTPγS SPA Binding Assay, membranes from S1P3 transfected CHO cells; format: biochemical; set-up: expressed in transfected cells; host or cells: CHO cells; settings: S1P3 transfected CHO cell membranes, NC = a satisfactory dose response curve was not obtained
Procedure: as §5, §2
Target sequence in this assay (Q99500 whole entry, species assumed): as the sequence (Q99500 whole entry) above

SMILES: CCCCCCCCc1ccc(CCC(N)(CO)CO)cc1 [FTY720]
bradycardia on treatment [1]: results in bradycardia | circulating lymphocytes (circulating lymphocytes [2]): reduce circulating lymphocytes

EC50 (S1P1 [3]; Method A, S1P1/CHO cell membranes): 1.7 nM | GTPγS S1P3/S1P1 (Method A) (S1P1 [3]; ratio of GTPγS S1P3 EC50 to GTPγS S1P1 EC50, Method A): 2,100 | EC50 (S1P1 [6]; Method B SPA, S1P1 transfected CHO cell membranes, NC = a satisfactory dose response curve was not obtained): 0.076 nM | GTPγS S1P3/S1P1 (Method B) (S1P1 [6]; ratio of GTPγS S1P3 EC50 to GTPγS S1P1 EC50, Method B): 4,600 | EC50 (S1P3 [7]): 3600 nM | IC50 (S1P1 [8]): 0.05 nM | EC50 (S1P3 [9]): 350 nM
SMILES: O=C(O)C1CN(Cc2ccc(-c3noc(-c4noc(-c5ccccc5)c4C(F)(F)F)n3)cc2)C1 [Example 2, 1-(4-(5-(5-Phenyl-4-(trifluoromethyl)isoxazol-3-yl)-1,2,4-oxadiazol-3-yl)benzyl)azetidine-3-carboxylic acid]
% reduction in lymphocytes at 4 hr. (circulating lymphocytes [4]; 0.03 mg/kg): 70% | % reduction in lymphocytes at 24 hr. (circulating lymphocytes [4]; 0.03 mg/kg): 56% | % reduction in lymphocytes at 4 hr. (circulating lymphocytes [4]; 0.3 mg/kg): 80% | % reduction in lymphocytes at 24 hr. (circulating lymphocytes [4]; 0.3 mg/kg): 79% | % reduction in lymphocytes at 4 hr. (circulating lymphocytes [4]; 1.0 mg/kg): 84% | % reduction in lymphocytes at 24 hr. (circulating lymphocytes [4]; 1.0 mg/kg): 85% | % reduction in lymphocytes at 4 hr. (circulating lymphocytes [5]; 0.001 mg/kg): −26% | % reduction in lymphocytes at 24 hr. (circulating lymphocytes [5]; 0.001 mg/kg): 17% | % reduction in lymphocytes at 4 hr. (circulating lymphocytes [5]; 0.01 mg/kg): −4% | % reduction in lymphocytes at 24 hr. (circulating lymphocytes [5]; 0.01 mg/kg): 15% | % reduction in lymphocytes at 4 hr. (circulating lymphocytes [5]; 0.1 mg/kg): 70% | % reduction in lymphocytes at 24 hr. (circulating lymphocytes [5]; 0.1 mg/kg): 62% | % reduction in lymphocytes at 4 hr. (circulating lymphocytes [5]; 1.0 mg/kg): 83% | % reduction in lymphocytes at 24 hr. (circulating lymphocytes [5]; 1.0 mg/kg): 84%
